Data reported in patent publication US20100041696A1, “Compounds” (priority 2006, published 2010).
Where a name gives a salt, the structure may show the parent alone.

Molecular target: T1, SCD (stearoyl-CoA desaturase), SCD-containing rat microsomes (Rattus norvegicus, UniProt P07308)
T1 construct: SCD-containing rat microsomes (2 μg protein); from tissue
T1 sequence (P07308 1-358): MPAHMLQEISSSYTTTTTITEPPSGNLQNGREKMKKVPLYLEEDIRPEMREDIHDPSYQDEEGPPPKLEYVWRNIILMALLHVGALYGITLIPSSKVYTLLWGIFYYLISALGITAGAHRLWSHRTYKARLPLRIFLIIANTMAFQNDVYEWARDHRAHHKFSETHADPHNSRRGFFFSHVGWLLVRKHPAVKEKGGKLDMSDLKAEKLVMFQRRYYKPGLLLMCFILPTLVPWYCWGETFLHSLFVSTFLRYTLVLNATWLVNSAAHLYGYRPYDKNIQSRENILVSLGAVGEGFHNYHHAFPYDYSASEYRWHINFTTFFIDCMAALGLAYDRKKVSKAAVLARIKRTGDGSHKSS
Test: in vitro assay for SCD activity based on production of [3H]H2O from [9,10-3H] stearoyl Coenzyme A
Type: biochemical
Settings: SCD-containing rat microsomes (2 μg protein), substrate [9,10-3H] stearoyl Coenzyme A 1 μM, 5 minutes preincubation, 6 minutes incubation; read-out: average pIC50 value, in vitro assay for SCD activity (converted)
Description: The compounds of the present invention may be analysed in vitro for SCD activity using an assay based on the production of [^3H]H2O, which is released during the enzyme-catalyzed generation of the monounsaturated fatty acyl CoA product. The assay is performed in a 96-well filtration plates. The titrated substrate used in the assay is the [9,10-^3H] stearoyl Coenzyme A. After incubation for 6 minutes of SCD-containing rat microsomes (2 μg protein) and substrate (1 μM), the labelled fatty acid acyl-CoA species and microsomes are absorbed with charcoal and separated from [^3H]H2O by centrifugation. The formation of [^3H]H2O is used as a measure of SCD activity. Compounds at concentrations starting at 10 μM to 0.1 nM or vehicle (DMSO) are preincubated for 5 minutes with the microsomes before addition of the substrate. The concentration-responses are fitted with sigmoidal curves to obtain IC50 values.

| Compound | IC50 |
| --- | --- |
| O=C(Nc1cnn(Cc2ccccc2C(F)(F)F)c1)c1ccc2c(c1)CCNC2 [N-(1-{[2-(trifluoromethyl)phenyl]methyl}-1H-pyrazol-4-yl)-1,2,3,4-tetrahydro-6-isoquinolinecarboxamide hydrochloride] | 3.16 to 10 µM |
| CC(C)c1nn(Cc2ccc(Cl)c(Cl)c2)cc1C(=O)Nc1ccc2c(c1)CCNC2 [1-[(3,4-dichlorophenyl)methyl]-3-(1-methylethyl)-N-(1,2,3,4-tetrahydro-6-isoquinolinyl)-1H-pyrazole-4-carboxamide hydrochloride] | > 10 µM |
| CC(C)c1ccc(Cn2cc(NC(=O)c3ccc4c(c3)CCNC4)cn2)cc1 [N-(1-{[4-(1-methylethyl)phenyl]methyl}-1H-pyrazol-4-yl)-1,2,3,4-tetrahydro-6-isoquinolinecarboxamide hydrochloride] | > 10 µM |
| CC(C)COc1ccc(Cl)cc1Cn1cc(NC(=O)c2ccc3c(c2)CCN(C(=O)OC(C)(C)C)C3)cn1 [1,1-dimethylethyl 6-({[1-({5-chloro-2-[(2-methylpropyl)oxy]phenyl}methyl)-1H-pyrazol-4-yl]amino}carbonyl)-3,4-dihydro-2(1H)-isoquinolinecarboxylate] | > 10 µM |
| N#Cc1cccc(Cn2cc(NC(=O)c3ccc4c(c3)CCNC4)cn2)c1 [N-{1-[(3-cyanophenyl)methyl]-1H-pyrazol-4-yl}-1,2,3,4-tetrahydro-6-isoquinolinecarboxamide hydrochloride] | 3.16 to 10 µM |
| CC(C)c1c(C(=O)Nc2ccc3c(c2)CCNC3)cnn1Cc1ccc(Cl)c(Cl)c1 [1-[(3,4-dichlorophenyl)methyl]-5-(1-methylethyl)-N-(1,2,3,4-tetrahydro-6-isoquinolinyl)-1H-pyrazole-4-carboxamide hydrochloride] | > 10 µM |
| O=C(Nc1ccc2c(c1)CCNC2)c1cnn(Cc2ccc(Cl)cc2)c1 [1-[(4-chlorophenyl)methyl]-N-(1,2,3,4-tetrahydro-6-isoquinolinyl)-1H-pyrazole-4-carboxamide hydrochloride] | 3.16 to 10 µM |
| CC(C)COc1ccc(Cl)cc1Cn1cc(NC(=O)c2ccc3c(c2)CCNC3)cn1 [N-[1-({5-chloro-2-[(2-methylpropyl)oxy]phenyl}methyl)-1H-pyrazol-4-yl]-1,2,3,4-tetrahydro-6-isoquinolinecarboxamide hydrochloride] | > 10 µM |
| Cc1ccc(Cn2cc(NC(=O)c3ccc4c(c3)CCNC4)cn2)cc1 [Example 14, N-{1-[(4-methylphenyl)methyl]-1H-pyrazol-4-yl}-1,2,3,4-tetrahydro-6-isoquinolinecarboxamide] | 3.16 to 10 µM |
| CC(C)c1ccc(Cn2cc(NC(=O)c3ccc4c(c3)CCN(C(=O)OC(C)(C)C)C4)cn2)cc1 [1,1-dimethylethyl 6-{[(1-{[4-(1-methylethyl)phenyl]methyl}-1H-pyrazol-4-yl)amino]carbonyl}-3,4-dihydro-2(1H)-isoquinolinecarboxylate] | > 10 µM |
| O=C(Nc1cnn(COc2ccc(Cl)cc2)c1)c1ccc2c(c1)CCNC2 [N-(1-{[(4-chlorophenyl)oxy]methyl}-1H-pyrazol-4-yl)-1,2,3,4-tetrahydro-6-isoquinolinecarboxamide hydrochloride] | 3.16 to 10 µM |
| O=C(Nc1ccc2c(c1)CCNC2)c1cnn(Cc2ccc(C(F)(F)F)cc2)c1 [N-(1,2,3,4-tetrahydro-6-isoquinolinyl)-1-{[4-(trifluoromethyl)phenyl]methyl}-1H-pyrazole-4-carboxamide hydrochloride] | > 10 µM |
| O=C(Nc1cnn(Cc2ccccc2Cl)c1)c1ccc2c(c1)CCNC2 [Example 8, N-{1-[(2-chlorophenyl)methyl]-1H-pyrazol-4-yl}-1,2,3,4-tetrahydro-6-isoquinolinecarboxamide] | 3.16 to 10 µM |
| O=C(Nc1cnn(Cc2ccccc2)c1)c1ccc2c(c1)CCNC2 [N-[1-(phenylmethyl)-1H-pyrazol-4-yl]-1,2,3,4-tetrahydro-6-isoquinolinecarboxamide hydrochloride] | 3.16 to 10 µM |
